Results: publication PMC12203862, “BroadAMP-GPT: AI-Driven generation of broad-spectrum antimicrobial peptides for combating multidrug-resistant ESKAPE pathogens” (Gut Microbes, 2025)
Values after ≈ are worked out from the molar mass of the structure shown.

Tests used:
S. aureus ATCC 29213 = assay: microbe, parasite or virus in culture; format: cell-based; details: Staphylococcus aureus, ATCC29213; Table 1; S. aureus ATCC 29213; broth microdilution, CLSI M100-ED34; read-out: MIC
A. baumannii 7979 = assay: microbe, parasite or virus in culture; format: cell-based; details: Acinetobacter baumannii; Table 1; A. baumannii 7979; broth microdilution; read-out: MIC
Procedure: (§1) Bacterial strains and growth conditions: All Gram-negative and Gram-positive bacterial strains (Supplementary Table S8) were cultured in Luria-Bertani (LB) or trypticase soy broth (TSB) agar plates, respectively, and incubated overnight at 37 °C unless specifically indicated. A single colony of the tested bacterial strains was inoculated into medium broth with shaking at 220 rpm for further experiments.
(§2) Minimal inhibitory concentrations: Antimicrobial susceptibility testing was performed by broth microdilution method for AMPs against Gram-positive and Gram-negative pathogens above mentioned, following the methods of document CLSI M100-ED34.[43] The MICs were defined as the lowest concentrations that inhibit visible growth of the tested bacteria. E. coli ATCC 25,922 and S. aureus ATCC 29,213 were served as quality controls.

A. baumannii AB11 = assay: microbe, parasite or virus in culture; format: cell-based; details: Acinetobacter baumannii; Table 1; A. baumannii AB11; broth microdilution; read-out: MIC
Procedure: as §1, §2

E. coli ATCC 25922 = assay: microbe, parasite or virus in culture; format: cell-based; details: Escherichia coli, ATCC25922; Table 1; E. coli ATCC 25922; broth microdilution; read-out: MIC
Procedure: as §1, §2

E. faecalis ES01 = assay: microbe, parasite or virus in culture; format: cell-based; details: Enterococcus faecalis; Table 1; E. faecalis ES01; ermB, vanB; broth microdilution; read-out: MIC
Procedure: as §1, §2

E. faecalis J2 = assay: microbe, parasite or virus in culture; format: cell-based; details: Enterococcus faecalis; Table 1; E. faecalis J2; ermB, optrA; broth microdilution; read-out: MIC
Procedure: as §1, §2

E. faecalis JH2-2 = assay: microbe, parasite or virus in culture; format: cell-based; details: Enterococcus faecalis, JH22; Table 1; E. faecalis JH2-2; broth microdilution; read-out: MIC
Procedure: as §1, §2

E. faecalis SF23-1 = assay: microbe, parasite or virus in culture; format: cell-based; details: Enterococcus faecalis, SF231; Table 1; E. faecalis SF23-1; ermB, tetL, cfr; broth microdilution; read-out: MIC
Procedure: as §1, §2

E. faecium HFY01 = assay: microbe, parasite or virus in culture; format: cell-based; details: Enterococcus faecium; Table 1; E. faecium HFY01; broth microdilution; read-out: MIC
Procedure: as §1, §2

E. faecium MC38 = assay: microbe, parasite or virus in culture; format: cell-based; details: Enterococcus faecium; Table 1; E. faecium MC38; ermB, optrA; broth microdilution; read-out: MIC
Procedure: as §1, §2

E. faecium QF31 = assay: microbe, parasite or virus in culture; format: cell-based; details: Enterococcus faecium; Table 1; E. faecium QF31; ermB, cfr; broth microdilution; read-out: MIC
Procedure: as §1, §2

K. pneumoniae 9-1 = assay: microbe, parasite or virus in culture; format: cell-based; details: Klebsiella pneumoniae, 91; Table 1; K. pneumoniae 9-1; broth microdilution; read-out: MIC
Procedure: as §1, §2

P. aeruginosa PA14 = assay: microbe, parasite or virus in culture; format: cell-based; details: Pseudomonas aeruginosa; Table 1; P. aeruginosa PA14; broth microdilution; read-out: MIC
Procedure: as §1, §2

P. aeruginosa PAO1 = assay: microbe, parasite or virus in culture; format: cell-based; details: Pseudomonas aeruginosa; Table 1; P. aeruginosa PAO1; broth microdilution; read-out: MIC
Procedure: as §1, §2

S. agalactiae DL03 = assay: microbe, parasite or virus in culture; format: cell-based; details: Streptococcus agalactiae; Table 1; S. agalactiae DL03; ermB; broth microdilution; read-out: MIC
Procedure: as §1, §2

S. aureus M147-2 = assay: microbe, parasite or virus in culture; format: cell-based; details: Staphylococcus aureus, M1472; Table 1; S. aureus M147-2; ermB, tetL, cfr; broth microdilution; read-out: MIC
Procedure: as §1, §2

S. aureus M92-1 = assay: microbe, parasite or virus in culture; format: cell-based; details: Staphylococcus aureus, M921; Table 1; S. aureus M92-1; ermB, tetL, optrA; broth microdilution; read-out: MIC
Procedure: as §1, §2

S. aureus YZSA-15 = assay: microbe, parasite or virus in culture; format: cell-based; details: Staphylococcus aureus, YZSA15; Table 1; S. aureus YZSA-15; ermC, vanB; broth microdilution; read-out: MIC
Procedure: as §1, §2

S. aureus YZSA-21 = assay: microbe, parasite or virus in culture; format: cell-based; details: Staphylococcus aureus, YZSA21; Table 1; S. aureus YZSA-21; ermC; broth microdilution; read-out: MIC
Procedure: as §1, §2

S. aureus YZSA-24 = assay: microbe, parasite or virus in culture; format: cell-based; details: Staphylococcus aureus, YZSA24; Table 1; S. aureus YZSA-24; ermC, mecA; broth microdilution; read-out: MIC
Procedure: as §1, §2

S. pyogenes DL02 = assay: microbe, parasite or virus in culture; format: cell-based; details: Streptococcus pyogenes; Table 1; S. pyogenes DL02; ermB; broth microdilution; read-out: MIC
Procedure: as §1, §2

S. suis SH0918 = assay: microbe, parasite or virus in culture; format: cell-based; details: Streptococcus suis; Table 1; S. suis SH0918; ermB, tetO, optrA; broth microdilution; read-out: MIC
Procedure: as §1, §2

S. suis P1/7 = assay: microbe, parasite or virus in culture; details: Streptococcus suis, P1/7
Procedure: as §1
as §2, with “bacteria.” for “bacteria. E. coli ATCC 25,922 and S. aureus ATCC 29,213 were served as quality controls.”

S. enteritis S1 = assay: organism not typed; format: cell-based; details: Table 1; S. enteritis S1; broth microdilution; read-out: MIC
Procedure: as §1, §2

| Compound | MIC (S. aureus ATCC 29213) [mg/L] | MIC (A. baumannii 7979) [mg/L] | MIC (A. baumannii AB11) [mg/L] | MIC (E. coli ATCC 25922) [mg/L] | MIC (E. faecalis ES01) [mg/L] | MIC (E. faecalis J2) [mg/L] | MIC (E. faecalis JH2-2) [mg/L] | MIC (E. faecalis SF23-1) [mg/L] | MIC (E. faecium HFY01) [mg/L] | MIC (E. faecium MC38) [mg/L] | MIC (E. faecium QF31) [mg/L] | MIC (K. pneumoniae 9-1) [mg/L] | MIC (P. aeruginosa PA14) [mg/L] | MIC (P. aeruginosa PAO1) [mg/L] | MIC (S. agalactiae DL03) [mg/L] | MIC (S. aureus M147-2) [mg/L] | MIC (S. aureus M92-1) [mg/L] | MIC (S. aureus YZSA-15) [mg/L] | MIC (S. aureus YZSA-21) [mg/L] | MIC (S. aureus YZSA-24) [mg/L] | also measured |
| --- | --- | --- | --- | --- | --- | --- | --- | --- | --- | --- | --- | --- | --- | --- | --- | --- | --- | --- | --- | --- | --- |
| CO[C@@]1(NC(=O)Cc2cccs2)C(=O)N2C(C(=O)O)=C(COC(N)=O)CS[C@@H]21 [FOX, Cefoxitin] | 1 (≈ 2.34 µM) | > 64 | 16 (≈ 37.4 µM) | 0.25 (≈ 0.585 µM) | > 64 | > 64 | > 64 | > 64 | 8 (≈ 18.7 µM) | > 64 | > 64 | > 64 | > 64 | > 64 | 4 (≈ 9.36 µM) | 4 (≈ 9.36 µM) | 4 (≈ 9.36 µM) | 2 (≈ 4.68 µM) | 4 (≈ 9.36 µM) | 32 (≈ 74.9 µM) | MIC (S. pyogenes DL02): 1 mg/L (≈ 2.34 µM); MIC (S. suis SH0918): 8 mg/L (≈ 18.7 µM); MIC (S. suis P1/7): 1 mg/L (≈ 2.34 µM); MIC (S. enteritis S1): 32 mg/L (≈ 74.9 µM) |
| CNC(C)C1CCC(N)C(OC2C(N)CC(N)C(OC3OCC(C)(O)C(NC)C3O)C2O)O1 (stereo not drawn) [GEN, gentamicin] | 1 (≈ 2.09 µM) | > 64 | < 0.06 | 4 (≈ 8.38 µM) | > 64 | > 64 | 4 (≈ 8.38 µM) | 8 (≈ 16.8 µM) | < 0.06 | > 64 | > 64 | > 64 | < 0.06 | 0.125 (≈ 0.262 µM) | 16 (≈ 33.5 µM) | > 64 | > 64 | 0.5 (≈ 1.05 µM) | 0.5 (≈ 1.05 µM) | 1 (≈ 2.09 µM) | MIC (S. pyogenes DL02): 1 mg/L (≈ 2.09 µM); MIC (S. suis SH0918): 16 mg/L (≈ 33.5 µM); MIC (S. suis P1/7): 4 mg/L (≈ 8.38 µM); MIC (S. enteritis S1): 0.25 mg/L (≈ 0.523 µM) |
